These results are taken from patent publication US20250099407A1, “2-AMINO BENZOPHENONE DERIVATIVES FOR TARGETED FERROPTOSIS INDUCTION IN CANCER THERAPY” (INDIAN INSTITUTE OF TECHNOLOGY KANPUR, priority 2023, published 2025).

One test relates to A375. The test is described as follows: Cell viability, CellTiter-Glo assay, A375. Format: cell-based. The conditions noted are these: Homo sapiens, A-375. The protocol:
The viability of screened cancer cells was recorded using a luminescence-based CellTiter-Glo® assay for the ATP quantification. The screening concentration of the molecule ranged from 100/10 μM to 45/4.5 nM with an 8-point-3-fold dilution series in DMEM media (>0.1% DMSO as control). Each experiment was conducted in more than two biological replicates with three technical replicates. The error bar is a representation of standard deviation among the technical replicates.
The viability of screened cancer cells was recorded using a luminescence-based CellTiter-Glo® assay for the ATP quantification. The screening concentration of IITK3002 ranged from 10 μM to 4.5 nM with an 8-point-3-fold dilution series in DMEM media (>0.1% DMSO as control). Each experiment was conducted in more than two biological replicates with three technical replicates. The error bar is a representation of standard deviation among the technical replicates.
a. […] In parallel, we have also synthesized the bromoacetamide (IITK3002) version of the lead molecules which is slightly more reactive with thiol nucleophiles when compared to chlorooacetamide warheads as depicted in FIG. 13. […] In addition, we also evaluated the molecules' antiproliferative potency against a panel of twelve different cancer phenotypes. […]
In general terms: In ATP-based viability assays light output follows the ATP content of the culture.

The subject of another test is 4T1 cells. The test is described as follows: Combination cell viability experiments in 4T1 cells. Format: cell-based. Conditions: 4T1, Ferrostain-1 10 μM. How it is done:
FIG. 14 depicts a combination experiment indicates the involvement of thiol modulation by IITK3001/IITK3002 on the viability of Huh-7 and 4T1 cells, in accordance with an embodiment of the present invention. The viability of screened cancer cells was recorded using a luminescence-based CellTiter-Glo® assay for the ATP quantification. The screening concentration of (a) IITK3001 and (b) IITK3002 ranged from 10 uM to 4.5 nM with an 8-point-3-fold dilution series in DMEM medium (>0.1% DMSO as control). For combination experiments, 500 μM of NAC or glutathione and 25 μM of BSO were used. Each experiment was conducted in more than two biological replicates with three technical replicates. The error bar is a representation of standard deviation among the technical replicates.
FIG. 17 depicts IITK3001-mediated ferroptosis induction as a cell death mechanism in 4T1 cells is recorded, in accordance with an embodiment of the present invention. The screening concentration of (a) IITK3001 and (b) IITK3002 ranged from 10 μM to 4.5 nM with an 8-point-3-fold dilution series. […]
FIG. 19 depicts IITK3001-mediated ferroptosis induction as a cell death mechanism in 4T1 cells is recorded, in accordance with an embodiment of the present invention. […]

Take `CN(C(=O)CCl)c1ccccc1C(=O)c1ccccc1` [IITK3001, N-(2-benzoylphenyl)-2-chloro-N-methylacetamide]: the EC50 in the test with A375 stood at 352 nM. Further, the “effect of Fer-1 combination in 4T1 cells” value with 4T1 cells is “negligible”.

One may read the EC50 as the midpoint of the concentration-response curve.
